# In US11919887B2, “Substituted tetrahydrofurans as modulators of sodium channels” (Vertex Pharmaceuticals Incorporated, priority 2019, dated 2024):
# Target: human Nav 1.8 (Homo sapiens, UniProt Q9Y5Y9)
# Assay: E-VIPR assay detecting and measuring Nav inhibition (HEK cells expressing truncated human Nav 1.8)
# Assay type: cell-based
# Details: in the Absence of Human Serum in the E-VIPR Assay
# Procedure, shortened: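 HEK cells expressing truncated human Nav1.8, transduced with KIR2.1 BacMam, were loaded with CC2-DMPE/DiSBAC6(3) FRET dyes and tested under electrical stimulation (E-VIPR). Compounds were run as 11-point 3-fold dilutions, top 300 nM final, 0.625% DMSO, with or without 25% human serum.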
# human Nav 1.8, sequence (Q9Y5Y9 whole entry, looked up, the tested form may be a part): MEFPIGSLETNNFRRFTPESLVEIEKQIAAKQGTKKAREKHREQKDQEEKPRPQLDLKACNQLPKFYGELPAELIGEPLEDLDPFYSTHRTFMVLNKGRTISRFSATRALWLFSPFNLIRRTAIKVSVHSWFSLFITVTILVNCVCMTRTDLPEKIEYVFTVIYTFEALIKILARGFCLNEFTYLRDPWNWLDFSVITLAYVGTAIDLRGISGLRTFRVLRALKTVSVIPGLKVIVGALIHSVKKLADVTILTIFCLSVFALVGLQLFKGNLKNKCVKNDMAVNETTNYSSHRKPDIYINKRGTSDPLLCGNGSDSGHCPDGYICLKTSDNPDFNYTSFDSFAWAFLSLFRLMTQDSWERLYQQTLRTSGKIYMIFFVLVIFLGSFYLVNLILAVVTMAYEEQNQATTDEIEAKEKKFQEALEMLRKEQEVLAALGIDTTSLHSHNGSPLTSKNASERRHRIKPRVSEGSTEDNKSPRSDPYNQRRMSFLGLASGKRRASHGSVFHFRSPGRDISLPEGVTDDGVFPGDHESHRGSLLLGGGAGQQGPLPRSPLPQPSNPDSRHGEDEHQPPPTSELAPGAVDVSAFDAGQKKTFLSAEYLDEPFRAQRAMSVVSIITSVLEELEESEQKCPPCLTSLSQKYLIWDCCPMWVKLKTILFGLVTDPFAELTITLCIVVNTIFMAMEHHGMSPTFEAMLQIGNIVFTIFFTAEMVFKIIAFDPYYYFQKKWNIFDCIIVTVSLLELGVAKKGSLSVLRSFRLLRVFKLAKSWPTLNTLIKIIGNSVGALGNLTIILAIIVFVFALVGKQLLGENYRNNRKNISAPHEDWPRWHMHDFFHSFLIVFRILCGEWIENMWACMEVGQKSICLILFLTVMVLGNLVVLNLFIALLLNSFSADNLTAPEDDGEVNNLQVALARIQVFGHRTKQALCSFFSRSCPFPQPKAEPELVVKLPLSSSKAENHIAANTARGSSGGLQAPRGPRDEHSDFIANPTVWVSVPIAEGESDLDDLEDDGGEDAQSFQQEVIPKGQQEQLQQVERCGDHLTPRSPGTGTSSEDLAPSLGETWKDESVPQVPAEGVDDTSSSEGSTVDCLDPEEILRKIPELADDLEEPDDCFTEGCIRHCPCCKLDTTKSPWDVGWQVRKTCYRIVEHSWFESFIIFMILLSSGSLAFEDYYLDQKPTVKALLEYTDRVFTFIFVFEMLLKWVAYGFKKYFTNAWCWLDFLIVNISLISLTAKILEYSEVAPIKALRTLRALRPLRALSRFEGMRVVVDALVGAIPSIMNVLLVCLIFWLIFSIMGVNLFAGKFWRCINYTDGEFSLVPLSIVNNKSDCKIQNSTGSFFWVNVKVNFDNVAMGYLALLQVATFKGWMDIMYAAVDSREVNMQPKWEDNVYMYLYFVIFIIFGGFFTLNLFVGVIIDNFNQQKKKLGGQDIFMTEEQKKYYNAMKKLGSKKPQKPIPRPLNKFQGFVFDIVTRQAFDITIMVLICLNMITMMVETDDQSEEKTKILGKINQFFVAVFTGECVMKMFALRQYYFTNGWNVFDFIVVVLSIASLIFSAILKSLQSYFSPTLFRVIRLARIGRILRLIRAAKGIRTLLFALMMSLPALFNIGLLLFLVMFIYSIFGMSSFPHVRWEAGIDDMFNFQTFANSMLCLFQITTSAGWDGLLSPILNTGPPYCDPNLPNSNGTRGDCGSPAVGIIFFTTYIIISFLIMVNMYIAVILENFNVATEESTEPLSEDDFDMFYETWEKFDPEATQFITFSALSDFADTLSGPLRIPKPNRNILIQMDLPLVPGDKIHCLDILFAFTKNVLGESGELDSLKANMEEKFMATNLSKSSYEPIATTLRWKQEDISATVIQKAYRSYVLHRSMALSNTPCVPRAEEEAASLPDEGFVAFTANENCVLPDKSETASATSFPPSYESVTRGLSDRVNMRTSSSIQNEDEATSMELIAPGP
row,Compound,IC50 [nM]
1,"[2H]c1cnc(C(N)=O)cc1NC(=O)[C@@H]1O[C@@](C)(C(F)(F)F)[C@@H](C)[C@H]1c1ccc(F)c(F)c1OC [Compound 124, 5-deuterio-4-[[(2R,3S,4S,5R)-3-(3,4-difluoro-2-methoxy-phenyl)-4,5-dimethyl-5-(trifluoromethyl)tetrahydrofuran-2-carbonyl]amino]pyridine-2-carboxamide]",< 10
2,"[2H]c1c(NC(=O)[C@@H]2O[C@@](C)(C(F)(F)F)[C@@H](C)[C@H]2c2ccc(F)c(F)c2OC)ccnc1C(N)=O [Compound 129, 3-deuterio-4-[[(2R,3S,4S,5R)-3-(3,4-difluoro-2-methoxy-phenyl)-4,5-dimethyl-5-(trifluoromethyl)tetrahydrofuran-2-carbonyl]amino]pyridine-2-carboxamide]",< 10
3,"[2H]c1cc([C@H]2[C@H](C(=O)Nc3ccnc(C(N)=O)c3)O[C@@](C)(C(F)(F)F)[C@H]2C)c(OC)c(F)c1F [Compound 148, 4-[[(2R,3S,4S,5R)-3-(5-deuterio-3,4-difluoro-2-methoxy-phenyl)-4,5-dimethyl-5-(trifluoromethyl)tetrahydrofuran-2-carbonyl]amino]pyridine-2-carboxamide]",< 10

# Same assay, conditions: in the Absence of Human Serum in the E-VIPR Assay; read-out: IC50
row,Compound,IC50 [nM]
1,"COc1c([C@H]2[C@H](C(=O)Nc3cc(C(N)=O)ncn3)O[C@@](C)(C(F)(F)F)[C@H]2C)ccc(F)c1F [Compound 121, 6-[[(2R,3S,4S,5R)-3-(3,4-difluoro-2-methoxy-phenyl)-4,5-dimethyl-5-(trifluoromethyl)tetrahydrofuran-2-carbonyl]amino]pyrimidine-4-carboxamide]",< 10
2,"COc1c([C@H]2[C@H](C(=O)Nc3cc(C(N)=O)ncc3F)O[C@@](C)(C(F)(F)F)[C@H]2C)ccc(F)c1F [Compound 122, 4-[[(2R,3S,4S,5R)-3-(3,4-difluoro-2-methoxy-phenyl)-4,5-dimethyl-5-(trifluoromethyl)tetrahydrofuran-2-carbonyl]amino]-5-fluoro-pyridine-2-carboxamide]",< 10
3,"COc1c([C@H]2[C@H](C(=O)Nc3ccc(F)c(C(N)=O)c3)O[C@@](C)(C(F)(F)F)[C@H]2C)ccc(F)c1F [Compound 123, (2R,3S,4S,5R)-N-(3-carbamoyl-4-fluoro-phenyl)-3-(3,4-difluoro-2-methoxy-phenyl)-4,5-dimethyl-5-(trifluoromethyl)tetrahydrofuran-2-carboxamide]",< 10
4,"COc1c([C@H]2[C@H](C(=O)Nc3ccnc(C(N)=O)c3F)O[C@@](C)(C(F)(F)F)[C@H]2C)ccc(F)c1F [Compound 126, 4-[[(2R,3S,4S,5R)-3-(3,4-difluoro-2-methoxy-phenyl)-4,5-dimethyl-5-(trifluoromethyl)tetrahydrofuran-2-carbonyl]amino]-3-fluoro-pyridine-2-carboxamide]",< 10
5,"COc1c([C@H]2[C@H](C(=O)Nc3cc(F)nc(C(N)=O)c3)O[C@@](C)(C(F)(F)F)[C@H]2C)ccc(F)c1F [Compound 127, 4-[[(2R,3S,4S,5R)-3-(3,4-difluoro-2-methoxy-phenyl)-4,5-dimcthyl-5-(trifluoromethyl)tetrahydrofuran-2-carbonyl]amino]-6-fluoro-pyridine-2-carboxamide]",< 10
6,"C[C@H]1[C@@H](c2ccc(F)c(F)c2OC2CCC2)[C@H](C(=O)Nc2ccnc(C(N)=O)c2)O[C@@]1(C)C(F)(F)F [Compound 147, 4-[[(2R,3S,4S,5R)-3-[2-(cyclobutoxy)-3,4-difluoro-phenyl]-4,5-dimethyl-5-(trifluoromethyl)tetrahydrofuran-2-carbonyl]amino]pyridine-2-carboxamide]",< 10
7,"C=Cc1c([C@H]2[C@H](C(=O)Nc3ccnc(C(N)=O)c3)O[C@@](C)(C(F)(F)F)[C@H]2C)ccc(F)c1F [Compound 149, 4-[[(2R,3S,4S,5R)-3-(3,4-difluoro-2-vinyl-phenyl)-4,5-dimethyl-5-(trifluoromethyl)tetrahydrofuran-2-carbonyl]amino]pyridine-2-carboxamide]",< 10
8,"COc1c([C@H]2[C@H](C(=O)Nc3ccnc(C(N)=O)c3)O[C@@](C)(C(F)(F)F)[C@H]2C)cc(Cl)c(F)c1F [Compound 152, 4-[[(2R,3S,4S,5R)-3-(5-chloro-3,4-difluoro-2-methoxy-phenyl)-4,5-dimethyl-5-(trifluoromethyl)tetrahydrofuran-2-carbonyl]amino]pyridine-2-carboxamide]",< 10

# Same assay, conditions: in the Presence of Human Serum in the E-VIPR Assay
row,Compound,IC50 [nM]
1,[2H]C([2H])([2H])Oc1c([C@H]2[C@H](C(=O)Nc3ccnc(C(N)=O)c3)O[C@@](C)(C(F)(F)F)[C@H]2C)ccc(F)c1F [compound 26],< 10

# Same assay, conditions: in the Presence of Human Serum in the E-VIPR Assay; read-out: IC50
row,Compound,IC50 [nM]
1,"C[C@H]1[C@@H](c2ccc(F)c(F)c2OCC2CC(F)(F)C2)[C@H](C(=O)Nc2ccnc(C(N)=O)c2)O[C@@]1(C)C(F)(F)F [Compound 146, 4-[[(2R,3S,4S,5R)-3-[2-[(3,3-difluorocyclobutyl)methoxy]-3,4-difluoro-phenyl]-4,5-dimethyl-5-(trifluoromethyl)tetrahydrofuran-2-carbonyl]amino]pyridine-2-carboxamide]",10 to 100
2,C[C@@]1(C(F)(F)F)C[C@H](c2ccc(F)cc2OC(F)F)[C@@H](C(=O)Nc2ccnc(C(N)=O)c2)O1 [compound 73],> 1000
3,C[C@]1(C(F)(F)F)C[C@@H](c2ccc(F)cc2OC(F)F)[C@H](C(=O)Nc2ccnc(C(N)=O)c2)O1 [compound 74],10 to 100
